These results are taken from patent US20240409585A1, “MACROCYCLIC IMMUNOMODULATORS” (priority 2021, published 2024).

Read-outs that look alike come from different tables or passages of the source. Bridge positions count the residues as written; N and C are the ends. Square brackets hold non-standard residues; d marks the D form. Peptide text beside a SMILES is read from it. * marks the point of attachment. ξ: configuration not given here. Phe(4-COOH) = N[C@@H](Cc1ccc(C(=O)O)cc1)C(=O)O; Bip = N[C@@H](Cc1ccc(-c2ccccc2)cc1)C(=O)O; Phe(3-F) = N[C@@H](Cc1cccc(F)c1)C(=O)O; Phe(3-Me) = Cc1cccc(C[C@H](N)C(=O)O)c1; Val(3-OH) = CC(C)(O)[C@H](N)C(=O)O; 3Pal = N[C@@H](Cc1cccnc1)C(=O)O; 4Pal = N[C@@H](Cc1ccncc1)C(=O)O; Cha = N[C@@H](CC1CCCCC1)C(=O)O; Ile(3ξ) = CCC(C)[C@H](N)C(=O)O; Thr(3ξ) = CC(O)[C@H](N)C(=O)O; ξCha = NC(CC1CCCCC1)C(=O)O; dPip = O=C(O)[C@H]1CCCCN1; Carboxymethyl = O=C(O)C*; NMeA = CN[C@@H](C)C(=O)O; Pra = C#CC[C@H](N)C(=O)O; Dab = NCC[C@H](N)C(=O)O

The experiment deals with T1, PE-labeled human PD-L1-Ig binding to Jurkat cell line over-expressing human PD-1 (Jurkat-PD-1) (Homo sapiens, UniProt Q15116).
T1 construct: expressed in transfected cells; host or cells: Jurkat
Briefly: Jurkat-PD-1 Cell Binding High-Content Screening Assay (CBA): Method 1.

The mark [1] stands for this setting: Jurkat-hPD-1 cells, PE-labeled PD-L1-Ig 20 nM final, read-out: Jurkat HPDL1 PD1 IC50 (uM) (Method 1).

T1 sequence (Q15116 25-288): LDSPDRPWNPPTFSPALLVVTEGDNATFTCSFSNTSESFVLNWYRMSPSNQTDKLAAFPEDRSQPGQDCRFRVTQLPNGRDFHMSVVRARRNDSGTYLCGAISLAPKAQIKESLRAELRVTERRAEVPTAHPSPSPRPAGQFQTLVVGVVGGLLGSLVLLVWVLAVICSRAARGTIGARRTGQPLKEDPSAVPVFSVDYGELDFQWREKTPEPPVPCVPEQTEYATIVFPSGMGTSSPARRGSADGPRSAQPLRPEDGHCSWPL

In the case of `Cc1cccc(C[C@@H]2NC(=O)[C@H](CC(=O)O)NC(=O)[C@H](Cc3ccc(OCC(=O)O)cc3)NC(=O)[C@H](Cc3ccncc3)NC(=O)CSC[C@@H](C(=O)N[C@@H](CCN)C(N)=O)NC(=O)[C@H](CC(=O)O)NC(=O)[C@H](C(C)(C)O)NC(=O)[C@H](CC3CCCCC3)NC(=O)[C@H](CCN)NC(=O)[C@@H](CC(C)C)NC(=O)[C@H](C)N(C)C(=O)[C@H](Cc3ccc(OCC(=O)O)cc3)NC(=O)[C@H](Cc3ccc(-c4ccccc4)cc3)NC(=O)[C@H](Cc3ccc(OCC(=O)O)cc3)NC2=O)c1` [Compound 2190] ({CH2CO}-[4Pal]Y(Carboxymethyl)D[Phe(3-Me)]Y(Carboxymethyl)[Bip]Y(Carboxymethyl)[NMeA][dL][Dab][Cha][Val(3-OH)]DC[Dab]-NH2; thioether N-14), the IC50 under setting [1] is 0.03 µM.
Consider `CCC(C)[C@@H]1NC(=O)[C@H](Cc2ccc(-c3ccccc3)cc2)NC(=O)[C@H](C(C)C)NC(=O)[C@H](Cc2cccc(C)c2)NC(=O)[C@H](CC(=O)O)NC(=O)[C@H](Cc2ccc(OCC(=O)O)cc2)NC(=O)[C@H](C(C)O)NC(=O)CSC[C@@H](C(=O)N[C@@H](CO)C(=O)NCC(=O)N[C@H](CO)C(N)=O)NC(=O)[C@H](C(C)O)NC(=O)[C@H](C(C)C)NC(=O)C(CC2CCCCC2)NC(=O)[C@H](CCN)NC(=O)[C@@H](CC(C)C)NC(=O)[C@H](C)N(C)C1=O` (stereo partly drawn) [Example 5005] ({CH2CO}-[Thr(3ξ)]Y(Carboxymethyl)D[Phe(3-Me)]V[Bip][Ile(3ξ)][NMeA][dL][Dab][ξCha]V[Thr(3ξ)]CSG[dS]-NH2; thioether N-14), for which, for the setting “Jurkat-PD-1 cells, PE-labeled PD-L1-Ig, μM, read-out: CBA Method 1 μM”, the IC50 turned out to be 0.02 µM.
Regarding `CC(C)C[C@@H]1NC(=O)[C@H](Cc2c[nH]c3ccccc23)NC(=O)[C@H](CC(=O)O)NC(=O)[C@H](Cc2ccc(C(=O)O)cc2)NC(=O)[C@H](Cc2ccc(OCC(=O)O)cc2)NC(=O)CSC[C@@H](C(=O)N[C@@H](CCN)C(N)=O)NC(=O)[C@H](CCC(=O)O)NC(=O)[C@H](C(C)(C)O)NC(=O)[C@H](CC2CCCCC2)NC(=O)[C@H](CCN)NC(=O)[C@@H](CC(C)C)NC(=O)[C@H](C)N(C)C(=O)[C@H](C(C)(C)O)NC(=O)[C@H](Cc2ccc(-c3ccccc3)cc2)NC1=O` [Compound 1717] ({CH2CO}-Y(Carboxymethyl)[Phe(4-COOH)]DWL[Bip][Val(3-OH)][NMeA][dL][Dab][Cha][Val(3-OH)]EC[Dab]-NH2; thioether N-14), the IC50 under setting [1] amounted to 0.02 µM.
On the same count and under the same terms, the value for `Cc1cccc(C[C@@H]2NC(=O)[C@H](CC(=O)O)NC(=O)[C@H](Cc3ccc(OCC(=O)O)cc3)NC(=O)[C@H](C(C)O)NC(=O)CSC[C@@H](C(N)=O)NC(=O)[C@H](CCCCN)NC(=O)[C@H](C(C)C)NC(=O)[C@H](CC(C)C)NC(=O)[C@H](CC(N)=O)NC(=O)[C@@H](CC(C)C)NC(=O)[C@H](C)N(C)C(=O)[C@H](C(C)C)NC(=O)[C@H](Cc3ccc(-c4ccccc4)cc3)NC(=O)[C@H](CC(C)C)NC2=O)c1` (stereo partly drawn) [Compound 2259] ({CH2CO}-[Thr(3ξ)]Y(Carboxymethyl)D[Phe(3-Me)]L[Bip]V[NMeA][dL]NLVKC-NH2; thioether N-14) was 0.1 µM; that for `CC(C)C[C@@H]1NC(=O)[C@H](CCCNC(=N)N)NC(=O)[C@@H](CC(C)C)NC(=O)[C@H](C)N(C)C(=O)[C@H](CCCNC(=N)N)NC(=O)[C@H](Cc2ccc(-c3ccccc3)cc2)NC(=O)[C@H](C(C)C)NC(=O)[C@H](Cc2c[nH]c3ccccc23)NC(=O)[C@H](CC(=O)O)NC(=O)[C@H](Cc2cccnc2)NC(=O)[C@H](Cc2ccccc2)NC(=O)CSC[C@@H](C(=O)N[C@@H](C)C(N)=O)NC(=O)[C@H]([C@@H](C)O)NC(=O)[C@H](C(C)C)NC1=O` [Compound 1101] ({CH2CO}-F[3Pal]DWV[Bip]R[NMeA][dL]RLVTCA-NH2; thioether N-14) was 0.29 µM.
Same read-out and setting: the value for `C#CC[C@H](NC(=O)[C@@H](C)NC(=O)[C@@H]1CSCC(=O)N[C@@H]([C@@H](C)O)C(=O)N[C@@H](Cc2ccc(OCC(=O)O)cc2)C(=O)N[C@@H](CC(=O)O)C(=O)N[C@@H](Cc2cccc(C)c2)C(=O)N[C@@H](Cc2ccc(OCC(=O)O)cc2)C(=O)N[C@@H](Cc2ccc(-c3ccccc3)cc2)C(=O)N[C@@H](Cc2ccc(OCC(=O)O)cc2)C(=O)N(C)[C@@H](C)C(=O)N[C@H](CC(C)C)C(=O)N[C@@H](CCN)C(=O)N[C@@H](CC2CCCCC2)C(=O)N[C@@H](C(C)(C)O)C(=O)N[C@@H](CCC(=O)O)C(=O)N1)C(N)=O` [Compound 1945] ({CH2CO}-TY(Carboxymethyl)D[Phe(3-Me)]Y(Carboxymethyl)[Bip]Y(Carboxymethyl)[NMeA][dL][Dab][Cha][Val(3-OH)]EC[dA][Pra]-NH2; thioether N-14) was 0.93 µM; that for `Cc1cccc(C[C@@H]2NC(=O)[C@H](CC(=O)O)NC(=O)[C@H](Cc3ccc(OCC(=O)O)cc3)NC(=O)[C@H](Cc3ccncc3)NC(=O)CSC[C@@H](C(N)=O)NC(=O)[C@H](CC(=O)O)NC(=O)[C@H](C(C)C)NC(=O)[C@H](CC3CCCCC3)NC(=O)[C@H](CCN)NC(=O)[C@@H](CC(C)C)NC(=O)[C@H](C)N(C)C(=O)[C@H](Cc3ccc(OCC(=O)O)cc3)NC(=O)[C@H](Cc3ccc(-c4ccccc4)cc3)NC(=O)[C@H](Cc3ccc(OCC(=O)O)cc3)NC2=O)c1` [Compound 1658] ({CH2CO}-[4Pal]Y(Carboxymethyl)D[Phe(3-Me)]Y(Carboxymethyl)[Bip]Y(Carboxymethyl)[NMeA][dL][Dab][Cha]VDC-NH2; thioether N-14) was 0.03 µM; that for `CC(C)C[C@@H]1NC(=O)[C@H](CCN)NC(=O)[C@@H](CC(C)C)NC(=O)[C@H](C)N(C)C(=O)[C@H](CC(N)=O)NC(=O)[C@H](Cc2ccc(-c3ccccc3)cc2)NC(=O)[C@H](C(C)C)NC(=O)[C@H](Cc2c[nH]c3ccccc23)NC(=O)[C@H](CC(=O)O)NC(=O)[C@H](Cc2ccc(O)cc2)NC(=O)[C@H](CC(N)=O)NC(=O)CSC[C@@H](C(=O)N[C@@H](C)C(N)=O)NC(=O)[C@H]([C@@H](C)O)NC(=O)[C@H](C(C)C)NC1=O` [Compound 1259] ({CH2CO}-NYDWV[Bip]N[NMeA][dL][Dab]LVTCA-NH2; thioether N-14) was 0.11 µM.
Still for that read-out and setting: the value for `CC(C)C[C@@H]1NC(=O)[C@H](CCN)NC(=O)[C@@H](CC(C)C)NC(=O)[C@H](C)N(C)C(=O)[C@H](CCC(=O)O)NC(=O)[C@H](Cc2ccc(-c3ccccc3)cc2)NC(=O)[C@H](C(C)C)NC(=O)[C@H](Cc2c[nH]c3ccccc23)NC(=O)[C@H](CC(=O)O)NC(=O)[C@H](Cc2ccc(OCC(=O)O)cc2)NC(=O)[C@H](CC(N)=O)NC(=O)CSC[C@@H](C(=O)NCC(N)=O)NC(=O)[C@H](C(C)O)NC(=O)[C@H](C(C)C)NC1=O` (stereo partly drawn) [Compound 2086] ({CH2CO}-NY(Carboxymethyl)DWV[Bip]E[NMeA][dL][Dab]LV[Thr(3ξ)]CG-NH2; thioether N-14) was 0.2 µM; that for `CC(C)C[C@@H]1NC(=O)[C@H](Cc2c[nH]c3ccccc23)NC(=O)[C@H](CC(=O)O)NC(=O)[C@H](Cc2ccc(O)cc2)NC(=O)[C@H](Cc2ccccc2)NC(=O)CSC[C@@H](C(=O)NCC(N)=O)NC(=O)[C@H]([C@@H](C)O)NC(=O)[C@H](C(C)C)NC(=O)[C@H](CC(C)C)NC(=O)[C@H](CCN)NC(=O)[C@@H](CC(C)C)NC(=O)[C@H](C)N(C)C(=O)[C@H](C(C)C)NC(=O)[C@H](Cc2ccc(-c3ccccc3)cc2)NC1=O` [Compound 1469] ({CH2CO}-FYDWL[Bip]V[NMeA][dL][Dab]LVTCG-NH2; thioether N-14) was 0.01 µM; that for `CCNC(=O)[C@H](CCN)NC(=O)[C@@H]1CSCC(=O)N[C@@H]([C@@H](C)O)C(=O)N[C@@H](Cc2ccc(OCC(=O)O)cc2)C(=O)N[C@@H](CC(=O)O)C(=O)N[C@@H](Cc2cccc(C)c2)C(=O)N[C@@H](Cc2cccc(F)c2)C(=O)N[C@@H](Cc2ccc(-c3ccccc3)cc2)C(=O)N[C@@H](Cc2ccc(OCC(=O)O)cc2)C(=O)N(C)[C@@H](C)C(=O)N[C@H](CC(C)C)C(=O)N[C@@H](CCN)C(=O)N[C@@H](CC2CCCCC2)C(=O)N[C@@H](C(C)(C)O)C(=O)N[C@@H](CO)C(=O)N1` [Compound 1844] ({CH2CO}-TY(Carboxymethyl)D[Phe(3-Me)][Phe(3-F)][Bip]Y(Carboxymethyl)[NMeA][dL][Dab][Cha][Val(3-OH)]SC[Dab]-NHEt; thioether N-14) was 0.02 µM.
For the compound `CC(C)C[C@@H]1NC(=O)[C@H](CCN)NC(=O)[C@@H](CC(C)C)NC(=O)[C@H](C)N(C)C(=O)[C@H](CCCNC(=N)N)NC(=O)[C@H](Cc2ccc(-c3ccccc3)cc2)NC(=O)[C@H](C(C)C)NC(=O)[C@H](Cc2c[nH]c3ccccc23)NC(=O)[C@H](CC(=O)O)NC(=O)[C@H](Cc2ccc(O)cc2)NC(=O)[C@H](CC(N)=O)NC(=O)CSC[C@@H](C(=O)N[C@@H](C)C(N)=O)NC(=O)[C@H]([C@@H](C)O)NC(=O)[C@H](C(C)C)NC1=O` [Compound 1038] ({CH2CO}-NYDWV[Bip]R[NMeA][dL][Dab]LVTCA-NH2; thioether N-14), under setting [1], the IC50 came to 0.13 µM.
As for `CCC(C)[C@@H]1NC(=O)[C@H](Cc2ccc(-c3ccccc3)cc2)NC(=O)[C@H](CC(C)C)NC(=O)[C@H](Cc2c[nH]c3ccccc23)NC(=O)[C@H](CC(=O)O)NC(=O)[C@H](Cc2ccc(C(=O)O)cc2)NC(=O)[C@H](Cc2ccc(OCC(=O)O)cc2)NC(=O)CSC[C@@H](C(=O)N[C@@H](CO)C(N)=O)NC(=O)[C@H](CCC(=O)O)NC(=O)[C@H](C(C)C)NC(=O)[C@H](CC2CCCCC2)NC(=O)[C@H](CCN)NC(=O)[C@@H](CC(C)C)NC(=O)[C@H](C)N(C)C1=O` (stereo partly drawn) [Compound 1930] ({CH2CO}-Y(Carboxymethyl)[Phe(4-COOH)]DWL[Bip][Ile(3ξ)][NMeA][dL][Dab][Cha]VECS-NH2; thioether N-14), under setting [1], the IC50 was 0.02 µM.
Turning to `CC(C)C[C@@H]1NC(=O)[C@H](CCN)NC(=O)[C@@H](CC(C)C)NC(=O)[C@H]2CCCCN2C(=O)[C@H](C(C)C)NC(=O)[C@H](Cc2ccc(-c3ccccc3)cc2)NC(=O)[C@H](C(C)C)NC(=O)[C@H](Cc2c[nH]c3ccccc23)NC(=O)[C@H](CC(=O)O)NC(=O)[C@H](Cc2ccc(O)cc2)NC(=O)[C@H](CC(N)=O)NC(=O)CSC[C@@H](C(=O)N[C@@H](C)C(N)=O)NC(=O)[C@H]([C@@H](C)O)NC(=O)[C@H](C(C)C)NC1=O` [Compound 1268] ({CH2CO}-NYDWV[Bip]V[dPip][dL][Dab]LVTCA-NH2; thioether N-14), the IC50 under setting [1] was 0.11 µM.
